Measured values published in the supplement of paper PMC10627819.

How the values were obtained:
B. subtilis 168 = test: fitness (endpoint OD595 vs no drug) (fraction); higher = more growth
In short: (§1)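 With the first reading as background, OD595 was measured every 30 min for 14 h in 384-well plates kept at 37 °C and inoculated at OD595 0.01. TSB, LB Lennox or CY was the medium. Fitness is the optical density at the transition into stationary phase divided by the robust mean of no-drug control wells, with a cap of 1.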

S. pneumoniae D39V = test: as above
In short: as §1
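Also: OD595 on entry to stationary phase over no-drug wells; at most 1.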

N[C@@H]1CONC1=O [Cycloserine D] + CCC(C)C1C(=O)NC(=C)C(=O)NC(C(=O)NC(CSCC(C(=O)N1)NC(=O)/C(=C/C)/NC(=O)C(C(C)CC)N)C(=O)NC2C(SCC(NC(=O)CNC(=O)C3CCCN3C2=O)C(=O)NC(CCCCN)C(=O)NC4C(SCC(NC(=O)CNC(=O)C(NC(=O)C(NC(=O)C(NC(=O)CNC4=O)C)CC(C)C)CCSC)C(=O)NC(CC(=O)N)C(=O)NC(CCSC)C(=O)NC(CCCCN)C(=O)NC5C(SCC6C(=O)NC(C(=O)NC(CSC(C(C(=O)N6)NC(=O)C(NC5=O)C)C)C(=O)NC(CO)C(=O)NC(C(C)CC)C(=O)NC(CC7=CN=CN7)C(=O)NC(C(C)C)C(=O)NC(=C)C(=O)NC(CCCCN)C(=O)O)CC8=CN=CN8)C)C)C)CC(C)C [Nisin]
fitness, B. subtilis 168, main component drawn
Details	first compound 0.125 µg/mL	first compound 0.25 µg/mL	first compound 0.5 µg/mL
partner 0.5 µg/mL	0.926	0.867	0.878
partner 1 µg/mL	0.888	0.824	0.81
partner 2 µg/mL	0.589	0.601	0.606

fitness, B. subtilis 168, one replicate, main component drawn
Details	partner 1.25 µg/mL	partner 1.6 µg/mL	partner 2.5 µg/mL	partner 3.2 µg/mL	partner 4 µg/mL	partner 5 µg/mL	partner 6.4 µg/mL	partner 8 µg/mL	partner 16 µg/mL
first compound 0.125 µg/mL	≥ 1	0.654	0.708	0.0215	0.0688	0.137	0.0306	0.0472	0.0248
first compound 0.25 µg/mL	≥ 1	0.681	0.698	0.0139	0.0497	0.0686	0.0459	0.0297	0.0048
first compound 0.5 µg/mL	0.985	0.721	0.341	0.0205	0.041	0.0366	0.017	0.0245	0.0169

N[C@@H]1CONC1=O [Cycloserine D] + CN(C)C(=O)C(CCN1CCC(O)(c2ccc(Cl)cc2)CC1)(c1ccccc1)c1ccccc1 [Loperamide]
fitness, B. subtilis 168
Details	first compound 0.125 µg/mL	first compound 0.25 µg/mL	first compound 0.5 µg/mL
partner 50 µg/mL	0.0169	0.0651	0.0491
partner 100 µg/mL	0.0259	0.0243	0.0094

N[C@@H]1CONC1=O [Cycloserine D] + CO[C@@H]1[C@@H](OC(N)=O)[C@@H](O)[C@H](Oc2ccc3c(O)c(NC(=O)c4ccc(O)c(CC=C(C)C)c4)c(=O)oc3c2C)OC1(C)C [Novobiocin]
fitness, B. subtilis 168
Details	first compound 0.125 µg/mL	first compound 0.25 µg/mL	first compound 0.5 µg/mL
partner 0.0125 µg/mL	0.987	0.943	0.922
partner 0.025 µg/mL	0.957	0.957	0.913
partner 0.05 µg/mL	≥ 1	0.994	0.992

fitness, B. subtilis 168, one replicate
Details	partner 0.1 µg/mL	partner 0.125 µg/mL	partner 0.2 µg/mL	partner 0.25 µg/mL	partner 0.5 µg/mL
first compound 0.125 µg/mL	0.906	0.871	0.921	0.908	0.605
first compound 0.25 µg/mL	0.995	0.962	≥ 1	0.852	0.632
first compound 0.5 µg/mL	≥ 1	0.967	0.952	0.958	0.544

N[C@@H]1CONC1=O [Cycloserine D] + C[C@H]1COc2c(N3CCN(C)CC3)c(F)cc3c(=O)c(C(=O)O)cn1c23 [Levofloxacin]
fitness, B. subtilis 168, one replicate
Details	first compound 0.125 µg/mL	first compound 0.25 µg/mL	first compound 0.5 µg/mL
partner 0.001 µg/mL	0.979	0.973	0.987
partner 0.0078 µg/mL	0.898	0.863	0.968

fitness, B. subtilis 168
Details	partner 0.002 µg/mL	partner 0.0039 µg/mL	partner 0.0312 µg/mL	partner 0.0625 µg/mL	partner 0.125 µg/mL
first compound 0.125 µg/mL	0.93	0.92	0.0375	0.0466	0.0546
first compound 0.25 µg/mL	0.921	0.902	0.0356	0.0536	0.0482
first compound 0.5 µg/mL	0.965	0.995	0.0328	0.0466	0.0559

N[C@@H]1CONC1=O [Cycloserine D] + C[C@H]1c2cccc(O)c2C(=O)C2=C(O)[C@]3(O)C(=O)C(C(N)=O)=C(O)[C@@H](N(C)C)[C@@H]3[C@@H](O)[C@@H]21 [Doxycycline]
fitness, B. subtilis 168
Details	first compound 0.125 µg/mL	first compound 0.25 µg/mL	first compound 0.5 µg/mL
partner 0.02 µg/mL	0.909	0.903	0.898
partner 0.04 µg/mL	0.738	0.732	0.709

C[C@@H](O)[C@H]1C(=O)N2C(C(=O)O)=C(SCCNC=N)C[C@H]12 [Imipenem] + CC1=C(C(=O)O)N2C(=O)[C@@H](NC(=O)[C@H](N)c3ccccc3)[C@H]2SC1 [Cephalexin]
fitness, S. pneumoniae D39V, one replicate
Details	first compound 0.005 µg/mL	first compound 0.01 µg/mL	first compound 0.02 µg/mL
partner 0.125 µg/mL	0.899	0.909	0.942
partner 0.25 µg/mL	0.874	0.946	0.938
partner 0.5 µg/mL	0.943	0.978	0.95

fitness, S. pneumoniae D39V
Details	first compound 0.0065 µg/mL	first compound 0.013 µg/mL	first compound 0.026 µg/mL
partner 1 µg/mL	0.278	0.4	0.176
partner 2 µg/mL	0.0001	0.0222	0.0128
partner 4 µg/mL	0.0361	0.0148	0.0072

C[C@@H](O)[C@H]1C(=O)N2C(C(=O)O)=C(SCCNC=N)C[C@H]12 [Imipenem] + CO[C@@]12[C@H](COC(N)=O)C3=C(C(=O)C(C)=C(N)C3=O)N1C[C@@H]1N[C@@H]12 [Mitomycin C]
S. pneumoniae D39V
Details	fitness
first compound 0.005 µg/mL, partner 0.001075 µg/mL	0.906
first compound 0.005 µg/mL, partner 0.00215 µg/mL	0.923
first compound 0.005 µg/mL, partner 0.0043 µg/mL	0.815
first compound 0.0065 µg/mL, partner 0.002 µg/mL	0.797
first compound 0.0065 µg/mL, partner 0.004 µg/mL	0.657
first compound 0.01 µg/mL, partner 0.001075 µg/mL	0.921
first compound 0.01 µg/mL, partner 0.00215 µg/mL	0.876
first compound 0.01 µg/mL, partner 0.0043 µg/mL	0.804
first compound 0.013 µg/mL, partner 0.002 µg/mL	0.583
first compound 0.013 µg/mL, partner 0.004 µg/mL	0.731
first compound 0.013 µg/mL, partner 0.008 µg/mL	0.56
first compound 0.02 µg/mL, partner 0.001075 µg/mL	0.937
first compound 0.02 µg/mL, partner 0.00215 µg/mL	0.919
first compound 0.02 µg/mL, partner 0.0043 µg/mL	0.78
first compound 0.026 µg/mL, partner 0.002 µg/mL	0.737
first compound 0.026 µg/mL, partner 0.004 µg/mL	0.668
first compound 0.026 µg/mL, partner 0.008 µg/mL	0.417

O=C1CN(/N=C/c2ccc([N+](=O)[O-])o2)C(=O)N1 [Nitrofurantoin] + CCC(C)C1C(=O)NC(=C)C(=O)NC(C(=O)NC(CSCC(C(=O)N1)NC(=O)/C(=C/C)/NC(=O)C(C(C)CC)N)C(=O)NC2C(SCC(NC(=O)CNC(=O)C3CCCN3C2=O)C(=O)NC(CCCCN)C(=O)NC4C(SCC(NC(=O)CNC(=O)C(NC(=O)C(NC(=O)C(NC(=O)CNC4=O)C)CC(C)C)CCSC)C(=O)NC(CC(=O)N)C(=O)NC(CCSC)C(=O)NC(CCCCN)C(=O)NC5C(SCC6C(=O)NC(C(=O)NC(CSC(C(C(=O)N6)NC(=O)C(NC5=O)C)C)C(=O)NC(CO)C(=O)NC(C(C)CC)C(=O)NC(CC7=CN=CN7)C(=O)NC(C(C)C)C(=O)NC(=C)C(=O)NC(CCCCN)C(=O)O)CC8=CN=CN8)C)C)C)CC(C)C [Nisin]
S. pneumoniae D39V, main component drawn
Details	fitness
first compound 1.285 µg/mL, partner 1.6 µg/mL	0.0025
first compound 1.285 µg/mL, partner 3.2 µg/mL	0.0467
first compound 1.285 µg/mL, partner 6.4 µg/mL	0.0134
first compound 2 µg/mL, partner 0.4275 µg/mL	0.988
first compound 2 µg/mL, partner 0.855 µg/mL	0.991
first compound 2 µg/mL, partner 1.71 µg/mL	0.075
first compound 2.57 µg/mL, partner 1.6 µg/mL	0.0197
first compound 2.57 µg/mL, partner 3.2 µg/mL	0.0583
first compound 2.57 µg/mL, partner 6.4 µg/mL	0.0339
first compound 4 µg/mL, partner 0.4275 µg/mL	0.971
first compound 4 µg/mL, partner 0.855 µg/mL	0.993
first compound 4 µg/mL, partner 1.71 µg/mL	0.0559
first compound 8 µg/mL, partner 0.4275 µg/mL	0.85
first compound 8 µg/mL, partner 1.71 µg/mL	0.0537

S. pneumoniae D39V, first compound 5.14 µg/mL, one replicate, main component drawn
Details	fitness
partner 1.6 µg/mL	0.0172
partner 3.2 µg/mL	0.0456
partner 6.4 µg/mL	0.0152

C/C(=C\C(=O)OCCCCCCCCC(=O)O)C[C@@H]1OC[C@H](C[C@@H]2O[C@H]2[C@@H](C)[C@H](C)O)[C@@H](O)[C@H]1O [Pseudomonic acid] + CCC(C)C1C(=O)NC(=C)C(=O)NC(C(=O)NC(CSCC(C(=O)N1)NC(=O)/C(=C/C)/NC(=O)C(C(C)CC)N)C(=O)NC2C(SCC(NC(=O)CNC(=O)C3CCCN3C2=O)C(=O)NC(CCCCN)C(=O)NC4C(SCC(NC(=O)CNC(=O)C(NC(=O)C(NC(=O)C(NC(=O)CNC4=O)C)CC(C)C)CCSC)C(=O)NC(CC(=O)N)C(=O)NC(CCSC)C(=O)NC(CCCCN)C(=O)NC5C(SCC6C(=O)NC(C(=O)NC(CSC(C(C(=O)N6)NC(=O)C(NC5=O)C)C)C(=O)NC(CO)C(=O)NC(C(C)CC)C(=O)NC(CC7=CN=CN7)C(=O)NC(C(C)C)C(=O)NC(=C)C(=O)NC(CCCCN)C(=O)O)CC8=CN=CN8)C)C)C)CC(C)C [Nisin]
fitness, S. pneumoniae D39V, main component drawn
Details	partner 0.4275 µg/mL	partner 0.855 µg/mL	partner 1.6 µg/mL	partner 1.71 µg/mL	partner 3.2 µg/mL	partner 6.4 µg/mL
first compound 0.03 µg/mL	0.935	0.928	–	0.0945	0.0435	0.0142
first compound 0.06 µg/mL	0.858	0.81	–	0.0658	0.0566	0.0188
first compound 0.12 µg/mL	0.51	0.21	0.174	0.0732	0.0384	0.0513

C/C(=C\C(=O)OCCCCCCCCC(=O)O)C[C@@H]1OC[C@H](C[C@@H]2O[C@H]2[C@@H](C)[C@H](C)O)[C@@H](O)[C@H]1O [Pseudomonic acid] + O=C1CN(/N=C/c2ccc([N+](=O)[O-])o2)C(=O)N1 [Nitrofurantoin]
fitness, S. pneumoniae D39V
Details	partner 1.285 µg/mL	partner 2 µg/mL	partner 2.57 µg/mL	partner 4 µg/mL	partner 8 µg/mL
first compound 0.03 µg/mL	0.916	0.854	0.942	0.872	0.793
first compound 0.06 µg/mL	0.815	0.773	0.819	0.706	0.718
first compound 0.12 µg/mL	0.616	0.563	0.605	0.59	0.515

S. pneumoniae D39V, partner 5.14 µg/mL, one replicate
Details	fitness
first compound 0.03 µg/mL	0.912
first compound 0.06 µg/mL	0.8
first compound 0.12 µg/mL	0.556
